{"source": "patent US20220354805A1", "about": "“Cannabidiol (CBD) as Chemical for Treating Aging-related Degenerative Diseases and Promoting Health Aging” (Hemix Biotech Limited, priority 2021, published 2022)", "key": {"[1]": {"system": "premature aging LMNA^G609G/G609G mice", "assay": "Healthspan analysis of LMNA^G609G/G609G mice", "format": "in vivo, mouse", "experimental": "In the step of analyzing the healthspan of LMNA^G609G/G609G mice, for chemical treatment in mice, 2 months old LMNA^G609G/G609G mice were used. They received an intraperitoneal injection (IP) twice a week until they reached the humane point. Different dosages were used for the injection, 50 mg/kg of CBD was identified as the optimal dosage with the greatest extend in healthspan of the treated mice. CBD was dissolved in 5% DMSO and 5% polyethylene glycol (PEG) in sterile saline and stored at −80° C. for up to 1 month."}, "[2]": {"system": "LMNA^G609G/G609G MEFs", "assay": "RNA sequencing of differentially expressed genes in MEFs", "format": "cell-based, mouse", "conditions": "10 μM CBD, 4 days", "experimental": "Primary mouse embryonic fibroblasts (MEFs) at passage 3 were seeded and cultured in 10-cm dish and treated with CBD for 4 days. The cells were washed twice with ice-cold phosphate buffered saline (PBS), and 1 mL TRIzol was added. After incubation at room temperature for 5 minutes, the samples were collected into Eppendorf tubes. The supernatants were collected to Eppendorf tubes. 200 μl of chloroform was added to each sample, and the tubes were shaken vigorously by hand for 15 seconds. The samples were incubated at room temperature for 5 minutes and then centrifuged at 4° C. at 12000 rcf for 15 minutes. After centrifugation, the solution was separated into 3 layers. 450 μl of the clear top layer was collected, and 500 μl of isopropanol was added. […] The RNA quantitation was done using Nanodrop and Agilent 2100 Bioanalyzer. The RNA integrity was measured using Agilent 2100 Bioanalyzer. The RNA purity was measured using agarose gel electrophoresis and Agilent 2100 Bioanalyzer. […]\nIllumina sequencing system was used for paired-end reads of read lengths PE150. […] The results were validated by quantitative polymerase chain reaction (qPCR). […] The concentration of RNA was measured by nanodrop. […] Then the samples were ready for qPCR. […] The delta-delta-ct value was calculated by the qPCR machine based on the signal of target genes normalized with housekeeping genes."}, "[3]": {"system": "bone marrow stromal cells of LMNA^G609G/G609G mice", "assay": "Crystal violet staining colony formation assay of mouse bone marrow stromal cells", "format": "in vivo", "conditions": "mice treated with 50 mg/kg CBD, vs LMNA^G609G/G609G control mice and wildtype mice; 12 days of culture", "experimental": "In the step of isolating the mouse bone marrow stromal cells for measurement of the clonogenicity, mice were sacrificed and placed inside tissue culture hood. The femur was dissected out using sterile utensils. The mouse bone marrow stromal cells were flushed out of femur using a 29G needle with 1 mL of ice-cold phosphate buffered saline (PBS). The bone marrow stromal cells collected were centrifuged at 3000 rpm for 5 minutes at 4° C. The supernatant was removed, and the cell pellet was resuspended in Minimum Essential Medium Eagle—alpha modification (α-MEM) supplemented with 20% fetal bovine serum (FBS) and penicillin-streptomycin (100 units/mL). The medium was changed every 3 days. After 12 days of culture, crystal violet staining colony formation assay was carried out. The cells were washed twice with ice-cold PBS. The cells were fixed with ice-cold methanol for 10 minutes. Then the cells were stained with 0.5% crystal violet dissolved in 25% methanol for 10 minutes at room temperature. The crystal violet solution was then removed, and the cells were rinsed with double-distilled water (ddH2O) until the rinse became clear. The plates were dried off, and pictures were taken for analysis."}, "[4]": {"system": "liver of LMNA^G609G/G609G mice", "assay": "Senescence-associated beta-galactosidase staining of mouse liver", "format": "in vivo", "conditions": "CBD treated LMNA^G609G/G609G mice", "experimental": "In the step of study the histology of mouse skin and liver, the mice were sacrificed by cervical dislocation under anesthesia by intraperitoneal (IP) injection of 100 mg/kg ketamine and 16 mg/kg xylazine in sterile water. Major organs, including skin, muscle, intestine, kidney, spleen, liver, lung, heart, aorta, were collected. Half of the tissues were snap-frozen in liquid nitrogen and stored at −80° C. for extraction of proteins and RNA. Another half of the tissues were fixed in 4% paraformaldehyde (PFA) in PBS and shook at 4° C. overnight. For paraffin wax sections, the fixed tissues were incubated in 70% ethanol and shook at 4° C. overnight. Followed by stepwise dehydration of tissues in 90%, 95%, 100%, and 100% ethanol for 1 hour each. Then the tissues were incubated in 50% xylene and 50% ethanol for 30 to 40 minutes and transferred to 100% xylene for 10 to 15 minutes. The tissues were then incubated in wax for 30 minutes and transferred to new wax for 3 times. Then the tissues were placed in the wax inside a vacuum chamber overnight. On the following day, the tissues were embedded into paraffin blocks and sectioned into slides with 6 μm in thickness. After the tissue sections were dried, they were incubated in xylene solution twice each for 5 minutes. […]"}, "[5]": {"conditions": "50 mg/kg CBD IP twice a week from 2 months old"}}}
{"compound": "C=C(C)[C@@H]1CCC(C)=C[C@H]1c1c(O)cc(CCCCC)cc1O", "note": "[CBD, Cannabidiol]", "values": [{"measurement": "increase in maximum healthspan", "setting": "[1]; [5]", "value": 19.8, "unit": "%"}, {"measurement": "increase in median healthspan", "setting": "[1]; [5]", "value": 8, "unit": "%"}, {"measurement": "increase of healthspan (FIG. 6b legend)", "setting": "[1]; 50 mg/kg CBD twice a week from 2 months old", "value": 11.2, "unit": "%"}, {"measurement": "optimal dosage (greatest extend in healthspan)", "setting": "[1]; IP twice a week, from 2 months old", "value": 50, "unit": "mg/kg"}, {"measurement": "differentially expressed genes restored to normal levels", "setting": "[2]", "value": "1066 out of 1363"}, {"measurement": "share of differentially expressed genes restored to normal levels", "setting": "[2]", "value": 78, "unit": "%"}, {"measurement": "number of colonies", "setting": "[3]", "value": "higher number of colonies"}, {"measurement": "increase of senescent cells in liver", "setting": "[4]", "value": "rescued"}]}
